Data reported in patent US9085520B2, “Composition for treating diabetes and metabolic diseases and a preparation method thereof” (KAOHSIUNG MEDICAL UNIVERSITY, priority 2011, dated 2015).
“Also recorded” adds a separate entry of the source.

Tests used:
3T3-L1 adipocytes [1] = test: adipocyte death / toxicity to adipocytes; settings: 30 μg/ml, matured 3T3-L1 adipocytes, 24 hours
3T3-L1 adipocytes [2] = test: glucose consumption (remaining glucose) in culture medium of 3T3-L1 adipocytes; assay type: cell-based; settings: for remaining glucose concentration in culture medium after 24 hours: culture medium of 3T3-L1 adipocytes after 24 hours, means ± SD, N = 3; for glucose absorption activity of adipocytes 3T3-L1 (anti-hyperglycemic ability): FIG. 1, medium glucose 300 mg/dl, remaining glucose after 24 hours
Protocol: After precursor adipocytes 3T3-L1 were induced as the matured adipocytes, culture medium with glucose (concentration of 300 mg/dl) and drugs were added, and the concentration of the remaining glucose in the culture medium were measured after 24 hours.
Adipose tissues are major sites for postprandial glucose uptake. Therefore, in vitro anti-diabetic screening model based on measuring glucose consumption after 24 hours in culture medium of 3T3-L1 adipocytes was developed. […] Accordingly, 60 chalcone derivatives with and without substitutions on A-ring were examined in our developed model. […] Structure-activity relationship (SAR) analyses data are also determined.

3T3-L1 adipocytes [3] = test: lipid droplet formation in 3T3-L1 adipocytes (Oil-Red O staining); assay type: cell-based; settings: insulin 3.2×10^−7 M, RSZ, PIO, chalcone derivatives 30 μg/ml, DMEM 25 mM D-glucose, 4 days
Protocol: After two days of differentiation, 3T3-L1 cells were treated without (control) or with insulin (3.2×10^−7 M), RSZ (30 μg/ml), PIO (30 μg/ml), and chalcone derivatives (30 μg/ml) in DMEM containing 25 mM D-glucose. After 4 days, lipid droplets were observed by Oil-Red O staining (data not shown).

C57BL/6 mice [4] = test: body weight gain of high-fat diet induced obesity mice; assay type: in vivo; settings: HF diet C57BL/6 mice
Text: (§1) Please refer to FIG. 2, C57BL/6 mice were grouped as four groups. (a) “Control” group (normal healthy animal group): the mice were fed with normal feed. (b) “High-fat (HF) diet” group (unhealthy negative control group): the mice were fed with high-fat-percentage feed (at least 40% fat) for a long-term period for inducing obesity and metabolic syndromes. (c) “HF diet+pioglitazone” group (clinical administration control group): the mice were fed with high-fat-percentage feed (at least 40% fat) for a long-term period for inducing obesity and metabolic syndromes and simultaneously administered with the clinically anti-diabetes TZD, pioglitazone (oral dosage: 6.75 mg/kg/day). […] The number of mice in the groups (a) to (d) were 5, 5, 6 and 13 respectively.
(§2) The method and conditions for performing Experiment 7 were similar to those in Experiments 3 and 4, wherein C57BL/6 mice were grouped as five groups, (a) “Control” group (n=6), (b) “HF diet” group (n=7); (c) “HF diet+pioglitazone” group (oral dosage: 6.75 mg/kg/day pioglitazone, n=8); (d) “HF diet+compound 26×1” group: the mice were fed with high-fat-percentage feed (at least 40% fat) for a long-term period for inducing obesity and metabolic syndromes and simultaneously administered with compound 26 (oral dosage: 6.75 mg/kg/day, n=11); and (e) “HF diet+compound 26×5” group (oral dosage: 33.75 mg/kg/day compound 26, n=12).

C57BL/6 mice [5] = test: fasting blood glucose level of HF diet mice; assay type: in vivo; settings: oral 6.75 mg/kg/day, 7 weeks, FIG. 3(a)
Text: as §1
(§3) The numbers of mice in Experiment 4 were the same as in Experiment 3, and mice were divided as four groups, “control”, “HF diet”, “HF diet+pioglitazone” and “HF diet+compound 12” groups.

C57BL/6 mice [6] = test: oral glucose tolerance test (OGTT) in HF diet mice; assay type: in vivo; settings: 7 weeks
Protocol: as §3, §2

COc1ccc(/C=C/C(=O)c2ccccc2O)cc1 [Compound 1, (E)-1-(2-hydroxyphenyl)-3-(4-methoxyphenyl)prop-2-en-1-one]
adipocyte death / toxicity to adipocytes (3T3-L1 adipocytes [1]): non-toxic | remaining glucose concentration in culture medium after 24 hours (3T3-L1 adipocytes [2]; 30 μg/ml, control 310 ± 4.0): 283 ± 21.4 mg/dL

O=C(/C=C/c1ccccc1)c1ccc(O)cc1O [Compound 2, (E)-1-(2,4-dihydroxyphenyl)-3-phenylprop-2-en-1-one]
adipocyte death / toxicity to adipocytes (3T3-L1 adipocytes [1]): lead to adipocyte death; also recorded: toxic | remaining glucose concentration in culture medium after 24 hours (3T3-L1 adipocytes [2]; 30 μg/ml, control 310 ± 4.0): 273 ± 2.9 mg/dL | glucose absorption activity of adipocytes 3T3-L1 (anti-hyperglycemic ability) (3T3-L1 adipocytes [2]; 30 μg/ml): not significantly better than that in compound 9

O=C(/C=C/c1ccc(OCc2ccccc2)cc1)c1ccc(O)cc1O [Compound 3, (E)-3-(4-(benzyloxy)phenyl)-1-(2,4-dihydroxyphenyl)prop-2-en-1-one]
adipocyte death / toxicity to adipocytes (3T3-L1 adipocytes [1]): lead to adipocyte death; also recorded: toxic | remaining glucose concentration in culture medium after 24 hours (3T3-L1 adipocytes [2]; 30 μg/ml, control 310 ± 4.0): 249 ± 12.2 mg/dL | glucose absorption activity of adipocytes 3T3-L1 (anti-hyperglycemic ability) (3T3-L1 adipocytes [2]; 30 μg/ml): not significantly better than that in compound 9

COc1cccc(/C=C/C(=O)c2ccccc2O)c1 [Compound 4, (E)-1-(2-hydroxyphenyl)-3-(3-methoxyphenyl)prop-2-en-1-one]
adipocyte death / toxicity to adipocytes (3T3-L1 adipocytes [1]): non-toxic | remaining glucose concentration in culture medium after 24 hours (3T3-L1 adipocytes [2]; 30 μg/ml, control 310 ± 4.0): 264 ± 7.8 mg/dL

COc1ccc(/C=C/C(=O)c2ccc(O)cc2O)cc1 [Compound 5, (E)-1-(2,4-dihydroxyphenyl)-3-(4-methoxyphenyl)-prop-2-en-1-one]
adipocyte death / toxicity to adipocytes (3T3-L1 adipocytes [1]): lead to adipocyte death; also recorded: toxic | remaining glucose concentration in culture medium after 24 hours (3T3-L1 adipocytes [2]; 30 μg/ml, control 310 ± 4.0): 248 ± 0.4 mg/dL | glucose absorption activity of adipocytes 3T3-L1 (anti-hyperglycemic ability) (3T3-L1 adipocytes [2]; 30 μg/ml): not significantly better than that in compound 9

COc1cccc(/C=C/C(=O)c2ccc(O)cc2O)c1 [Compound 6, (E)-1-(2,4-dihydroxyphenyl)-3-(3-methoxyphenyl)-prop-2-en-1-one]
adipocyte death / toxicity to adipocytes (3T3-L1 adipocytes [1]): lead to adipocyte death; also recorded: toxic | remaining glucose concentration in culture medium after 24 hours (3T3-L1 adipocytes [2]; 30 μg/ml, control 310 ± 4.0): 274 ± 12.1 mg/dL | glucose absorption activity of adipocytes 3T3-L1 (anti-hyperglycemic ability) (3T3-L1 adipocytes [2]; 30 μg/ml): not significantly better than that in compound 9

O=C(/C=C/c1ccccc1)c1ccccc1 [Compound 9, (E)-chalcone]
adipocyte death / toxicity to adipocytes (3T3-L1 adipocytes [1]): non-toxic | remaining glucose concentration in culture medium after 24 hours (3T3-L1 adipocytes [2]; 30 μg/ml, control 310 ± 4.0): 253 ± 9.9 mg/dL | glucose absorption activity of adipocytes 3T3-L1 (anti-hyperglycemic ability) (3T3-L1 adipocytes [2]; 30 μg/ml): relatively similar

COc1ccc(/C=C/C(=O)c2ccccc2Br)cc1 [Compound 12, (E)-1-(2-bromophenyl)-3-(4-methoxyphenyl)prop-2-en-1-one]
formation of lipid droplets (3T3-L1 adipocytes [3]): significantly prevent the formation of lipid droplets | adipocyte death / toxicity to adipocytes (3T3-L1 adipocytes [1]): didn't result in adipocyte death | glucose absorption activity of adipocytes 3T3-L1 (anti-hyperglycemic ability) (3T3-L1 adipocytes [2]; 30 μg/ml): best anti-hyperglycemic ability; also recorded: best activity | body weight gain (C57BL/6 mice [4]; oral dosage 6.75 mg/kg/day, FIG. 2): significantly inhibit the body weight gain; also recorded: inhibited | fasting blood glucose level (C57BL/6 mice [5]): significantly inhibit the increase of blood glucose level; also recorded: inhibition of the blood glucose level | glucose intolerance (OGTT) (C57BL/6 mice [6]; HF diet mice, oral 6.75 mg/kg/day, FIG. 3(b), 6.75 mg/kg/day): significantly inhibit the occurrence of glucose intolerance; also recorded: inhibition of glucose intolerance

COc1ccc(/C=C/C(=O)c2ccccc2I)cc1 [Compound 26, (E)-1-(2-iodophenyl)-3-(4-methoxyphenyl)prop-2-en-1-one]
formation of lipid droplets (3T3-L1 adipocytes [3]): significantly prevent the formation of lipid droplets | adipocyte death / toxicity to adipocytes (3T3-L1 adipocytes [1]): didn't result in adipocyte death | glucose absorption activity of adipocytes 3T3-L1 (anti-hyperglycemic ability) (3T3-L1 adipocytes [2]; 30 μg/ml): best anti-hyperglycemic ability | body weight / obesity (C57BL/6 mice [4]; oral dosage 6.75 or 33.75 mg/kg/day, FIG. 5): significantly prevents obesity; also recorded: inhibited | glucose intolerance / insulin resistance (C57BL/6 mice [6]; HF diet C57BL/6 mice, oral dosage 6.75 or 33.75 mg/kg/day, FIG. 6): significantly prevents obesity and insulin resistance; also recorded: inhibition of glucose intolerance

O=C(/C=C/c1ccccc1)c1ccc(I)cc1 [Compound 58, (E)-1-(4-iodophenyl)-3-phenylprop-2-en-1-one]
remaining glucose concentration in culture medium after 24 hours (3T3-L1 adipocytes [2]; 30 μg/ml, control 310 ± 4.0): 292 ± 5.3 mg/dL

COc1ccc(/C=C/C(=O)c2ccc(I)cc2)cc1 [Compound 59, (E)-1-(4-iodophenyl)-3-(4-methoxyphenyl)prop-2-en-1-one]
remaining glucose concentration in culture medium after 24 hours (3T3-L1 adipocytes [2]; 30 μg/ml, control 310 ± 4.0): 299 ± 3.8 mg/dL

COc1cccc(/C=C/C(=O)c2ccc(I)cc2)c1 [Compound 60, (E)-1-(4-iodophenyl)-3-(3-methoxyphenyl)prop-2-en-1-one]
remaining glucose concentration in culture medium after 24 hours (3T3-L1 adipocytes [2]; 30 μg/ml, control 310 ± 4.0): 274 ± 22.5 mg/dL

CCc1ccc(CCOc2ccc(CC3SC(=O)NC3=O)cc2)nc1 (stereo not shown) [Pioglitazone, pioglitazone, reference compound]
remaining glucose concentration in culture medium after 24 hours (3T3-L1 adipocytes [2]; 30 μg/ml, control 310 ± 4.0): 230 ± 13.5 mg/dL | remaining glucose concentration in culture medium after 24 hours (3T3-L1 adipocytes [2]; 30 μg/ml, control 310 ± 4.0, listed as pioglitazone): 230 mg/dL

CN(CCOc1ccc(CC2SC(=O)NC2=O)cc1)c1ccccn1 (stereo not shown) [Rosiglitazone, rosiglitazone, reference compound]
remaining glucose concentration in culture medium after 24 hours (3T3-L1 adipocytes [2]; 30 μg/ml, control 310 ± 4.0): 263 ± 23.9 mg/dL | remaining glucose concentration in culture medium after 24 hours (3T3-L1 adipocytes [2]; 30 μg/ml, control 310 ± 4.0, listed as rosiglitazone): 263 mg/dL

Insulin: insulin, positive control in the adipocyte tests
formation of lipid droplets (3T3-L1 adipocytes [3]): increase the lipid droplets in adipocytes | glucose consumption (3T3-L1 adipocytes [2]; Experiment 6, insulin 3.2×10^−7 M, RSZ, PIO 30 μg/ml, DMEM 25 mM D-glucose): promote glucose consumption | remaining glucose concentration in culture medium after 24 hours (3T3-L1 adipocytes [2]; insulin 3.2 × 10^−17M): 294 ± 6.3 mg/dL
